Reference: patent publication US9199914B2, “Multiple substituted fluoromethanes as selective and bioactive isosteres” (MEH ASSOCIATES, INC., priority 2010, dated 2015)
Values after ≈ are worked out from the molar mass of the structure shown. Where two headings read alike, the source gives them in different places.

How the values were obtained:
Assay type in all cases: cell-based
[1] = test system: L-6 (rat skeletal myoblast cells); assay: cells
[2] = test system: Trypanosoma brucei rhodesiense; STIB 900; assay: microbe, parasite or virus in culture
Plasmodium falciparum K1 = assay: microbe, parasite or virus in culture
[3] = test system: L. donovani MHOM-ET-67/L82, axenic amastigotes; assay: In vitro sensitivity assay: axenic Leishmania donovani (Resazurin)
[4] = test system: T. cruzi Tulahuen C2C4, containing the Lac Z gene; assay: In vitro sensitivity assay: T. cruzi (Lac Z / CPRG, in L-6 cells); details: Trypanosoma cruzi, L6; Tulahuen C4, amastigotes in L-6 cells
[5] = MHOM-ET-67/L82, amastigotes, 72 hours, read-out: IC50 Values L. donovani

O=C(O)CNCCC(F)(F)F [MEH-002, (3,3,3-Trifluoro-propylamino)-acetic acid]
IC50 ([1]; L6 cells, read-out: IC50 Values Cytoxicity): > 90 µg/mL | IC50 ([2]; STIB 900, trypomastigotes, 72 h, read-out: IC50 Values T.b. rhodensiense): 10.3 µg/mL (≈ 60.2 µM) | IC50 (Plasmodium falciparum K1; K1, IEF, read-out: IC50 Values P. falciparum): > 5 µg/mL | IC50 [3, 5]: > 90 µg/mL | IC50 [4]: > 90 µg/mL

CCN(CC)CCCC(C)Nc1ccnc2cc(Cl)ccc12 (stereo not shown) [chloroquinine, Chloroquine]
IC50 (Plasmodium falciparum K1; K1, read-out: IC50 Values P. falciparum): 0.059 µg/mL (≈ 0.184 µM) | IC50 (Plasmodium falciparum K1; K1, read-out: average IC50): 0.065 µg/mL (≈ 0.203 µM)

Nc1nc(N)nc(Nc2ccc([As]3SCC(CO)S3)cc2)n1 (stereo not shown) [melarsoprol]
IC50 ([2]; 72 h, read-out: IC50 Values T.b. rhodensiense): 0.003 µg/mL | IC50 ([2]; read-out: average IC50): 0.004 µg/mL

CCCCCCCCCCCCCCCCOP(=O)([O-])OCC[N+](C)(C)C [miltefosine]
IC50 [3, 5]: 0.178 µg/mL (≈ 0.437 µM) | IC50 ([3]; standard drug, protocol value, read-out: average IC50): 0.131 µg/mL (≈ 0.321 µM)

COc1cc([C@@H]2c3cc4c(cc3[C@H](O)[C@H]3COC(=O)[C@H]23)OCO4)cc(OC)c1OC [podophyllotoxin]
IC50 ([1]; L6, read-out: IC50 Values Cytoxicity): 0.007 µg/mL (≈ 0.0169 µM) | IC50 ([1]; Myoblast, read-out: average IC50): 0.006 µg/mL (≈ 0.0145 µM)
